From patent EP4737449A1 (Changchun Genescience Pharmaceutical Co., Ltd., priority 2023, dated 2025) come the findings set out here.

One experiment has as its target T1, p53-Y220C mutant protein (Homo sapiens, UniProt P04637, Y220C).
T1 construct: The recombinant Y220C p53 DBD protein with his-tag
Kind of experiment: In vitro DNA binding activity assay (TR-FRET). Format: biochemical. To be noted: concentration required to increase the binding activity of protein to DNA by 50%. The essentials:
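SC150, the compound concentration increasing p53-Y220C DNA binding by 50% relative to vehicle, came from background-corrected 665/615 nm TR-FRET ratios. His-tagged DBD and compound were preincubated 60 min at RT before biotin-DNA plus Eu-anti-His/streptavidin-d2 detection overnight in the dark.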
A general note: In TR-FRET formats the signal depends on donor and acceptor labels being close together.

For a further experiment, the system named is NUGC-3 cells. The experiment can be described thus: NUGC-3 cell proliferation assay (CTG, 7 days). Format: cell-based, human. As for the experimental part:
The cells were cultured in strict accordance with ATCC requirements.
Cell culture medium: 1640 culture medium, 10% serum, 1% penicillin + streptomycin.
Culture conditions: 37°C, 95% air, 5% carbon dioxide.
Compounds (20 mM) were subjected to gradient dilution in DMSO: 10 gradients, 3-fold dilution, duplicate wells.
Positive and negative controls (100% dimethyl sulfoxide) were prepared.
The compounds that were gradient diluted with DMSO and positive and negative controls (1st and 2nd step), each 75 nL, were transferred to 384-well cell culture plates by Echo550.
The cells were washed twice with PBS, digested with trypsin, and centrifuged for cell counting.
The experiment can only be carried out when the cell viability is above 90%.
The cells were plated into 384-well cell culture plates, with 200 (NUGC-3) cells and 30 µL of culture medium per well.
The 384-well microplate was placed in a cell culture incubator for 7 days.
30 µL of CTG detection reagent was added to the 384-well microplate.
The 384-well microplate was incubated for 30 min at 37°C, 5% carbon dioxide in the dark.
The reading was performed by a multi-functional microplate reader Envision.
% Inhibition is calculated as follows: % Inhibition = 100−(Signalcmpd−SignalAve_BL)/(SignalAve_VC−SignalAve_BL)*100 [formula] • Signalcmpd: Average signal of the compound in the cell plate • Signalave_vc: Average signal of the negative control in the cell plate • Signalave_BL: Average signal of the blank wells in the cell plate
IC50 was calculated by fitting % inhibition and compound concentration logarithmically to a nonlinear regression (dose response - variable slope) using Graphpad 8.0. Table 2 IC50 of selected compounds in NUGC-3 cell proliferation assay

Setting [1] is: NUGC-3 cell proliferation, 7 days, CTG, read-out: IC50.
Where [2] appears, read: Homo sapiens, NUGC-3, 168 h, NUGC-3 cell proliferation, 7 days, CTG, read-out: IC50.

Where a name gives a salt, the structure may show the parent alone. Read-outs that look alike come from different tables or passages of the source.

By IC50 is commonly meant the concentration that inhibits the measured activity by half. `CC(C1CC1)n1ncc(C(=O)NCC#Cc2nn3c(N[C@@H]4CCN(C)C[C@@H]4F)cccc3c2CC(F)(F)F)c1N` (single isomer, unassigned) [Compound 291A] gave an SC150 on p53-Y220C mutant protein of 3 nM. In addition, the half-maximal inhibitory concentration (IC50) in the experiment with NUGC-3 cells (setting [1]) was 166 nM.

At p53-Y220C mutant protein, `CC(C1CC1)n1ncc(C(=O)NCC#Cc2nn3c(N[C@@H]4CCN(C)C[C@@H]4F)cccc3c2CC(F)(F)F)c1N` (single isomer, unassigned) [Compound 291B] registered an SC150 of 4 nM. Moreover, the IC50 in the experiment on NUGC-3 cells (setting [1]) was found to be 162 nM.

In the case of `CN(C)C1CC[C@@H](Nc2cccc3c(CC(F)(F)F)c(C#CCNC(=O)c4cnn(C(C)(C)C)c4N)nn23)[C@@H](F)C1` (single isomer, unassigned) [Compound 358-A], the SC150 on p53-Y220C mutant protein was determined as 2 nM. Also, the IC50 with NUGC-3 cells (setting [2]) was 123 nM.

As to `CN1CC[C@@H](Nc2cccc3c(CC(F)(F)F)c(C#CCNC(=O)c4cccnc4)nn23)[C@@H](F)C1` [Compound 074, N-[3-(7-{[(3S,4R)-3-fluoro-1-methylpiperidin-4-yl]amino}-3-(2,2,2-trifluoroethyl)pyrazolo[1,5-a]pyridin-2-yl)prop-2-yn-1-yl]nicotinamide], the SC150 at p53-Y220C mutant protein was determined as 51 nM. The IC50 with NUGC-3 cells (setting [2]) worked out at 1860 nM.

On to `CN1CC[C@@H](Nc2cccc3c(CC(F)(F)F)c(C#CCNC(=O)c4cn(C(C)(C)C)cn4)nn23)[C@@H](F)C1` [Compound 082, 1-tert-butyl-N-[3-(7-{[(3S,4R)-3-fluoro-1-methylpiperidin-4-yl]amino}-3-(2,2,2-trifluoroethyl)pyrazolo[1,5-a]pyridin-2-yl)prop-2-yn-1-yl]-1H-imidazole-4-carboxamide], for which the SC150 at p53-Y220C mutant protein is reported as 20 nM. Besides, the 50% inhibitory concentration (IC50) in the experiment with NUGC-3 cells (setting [2]) came out at 1090 nM.

As to `CN1CC[C@@H](Nc2cccc3c(CC(F)(F)F)c(C#CCNC(=O)c4coc(C(C)(C)C)n4)nn23)[C@@H](F)C1` [Compound 090, 2-tert-butyl-N-[3-(7-{[(3S,4R)-3-fluoro-1-methylpiperidin-4-yl]amino}-3-(2,2,2-trifluoroethyl)pyrazolo[1,5-a]pyridin-2-yl)prop-2-yn-1-yl]-1,3-oxazole-4-carboxamide], in the experiment on NUGC-3 cells (setting [2]), the concentration for half-maximal inhibition (IC50) came to 6870 nM.

`CN1CC[C@@H](Nc2cccc3c(CC(F)(F)F)c(C#CCNC(=O)C4CC4)nn23)[C@@H](F)C1` [Compound 135, N-[3-(7-{[(3S,4R)-3-fluoro-1-methylpiperidin-4-yl]amino}-3-(2,2,2-trifluoroethyl)pyrazolo[1,5-a]pyridin-2-yl)prop-2-yn-1-yl]cycloproplycarboxamide] registered an SC150 at p53-Y220C mutant protein of 22 nM. In the experiment with NUGC-3 cells (Homo sapiens, NUGC-3, 168 h), this compound displayed an IC50 of 1670 nM.

Compound `CN1CC[C@@H](Nc2cccc3c(CC(F)(F)F)c(C#CCNC(=O)c4ccc(C(C)(C)O)cc4)nn23)[C@@H](F)C1` [Compound 230, N-[3-(7-{[(3S,4R)-3-fluoro-1-methylpiperidin-4-yl]amino}-3-(2,2,2-trifluoroethyl)pyrazolo[1,5-a]pyridin-2-yl)prop-2-yn-1-yl]-4-(2-hydroxyprop-2-yl)benzamide] gave an SC150 on p53-Y220C mutant protein of 29 nM. The 50% inhibitory concentration (IC50) in the experiment on NUGC-3 cells (setting [2]) amounted to 1060 nM.

`CN1CC[C@@H](Nc2cccc3c(CC(F)(F)F)c(C#CCNC(=O)c4cnn5c4CCC5)nn23)[C@@H](F)C1` [Compound 231, N-[3-(7-{[(3S,4R)-3-fluoro-1-methylpiperidin-4-yl]amino}-3-(2,2,2-trifluoroethyl)pyrazolo[1,5-a]pyridin-2-yl)prop-2-yn-1-yl]-5,6-dihydro-4H-pyrrolo[1,2-b]pyrazole-3-carboxamide] gave an SC150 on p53-Y220C mutant protein of 19 nM. The half-maximal inhibitory concentration (IC50) in the experiment with NUGC-3 cells (setting [2]) was found to be 724 nM.

In the case of `CN1CC[C@@H](Nc2cccc3c(CC(F)(F)F)c(C#CCNC(=O)c4cnn(C(C)(C)CO)c4)nn23)[C@@H](F)C1` [Compound 232, N-[3-(7-{[(3S,4R)-3-fluoro-1-methylpiperidin-4-yl]amino}-3-(2,2,2-trifluoroethyl)pyrazolo[1,5-a]pyridin-2-yl)prop-2-yn-1-yl]-1-(1-hydroxy-2-methylprop-2-yl)-1H-pyrazole-4-carboxamide], on p53-Y220C mutant protein, the SC150 came to 8 nM. Besides, the half-inhibitory concentration (IC50) in the experiment on NUGC-3 cells (setting [2]) was determined as 419 nM.

As for `CN1CC[C@@H](Nc2cccc3c(CC(F)(F)F)c(C#CCNC(=O)c4ccc(C(C)(C)O)nc4)nn23)[C@@H](F)C1` [Compound 236, N-[3-(7-{[(3S,4R)-3-fluoro-1-methylpiperidin-4-yl]amino}-3-(2,2,2-trifluoroethyl)pyrazolo[1,5-a]pyridin-2-yl)prop-2-yn-1-yl]-6-(2-hydroxyprop-2-yl)pyridine-3-carboxamide], the SC150 on p53-Y220C mutant protein was found to be 22 nM. In the experiment on NUGC-3 cells (setting [2]), the IC50 is 1280 nM.

On to `CN1CC[C@@H](Nc2cccc3c(CC(F)(F)F)c(C#CCNC(=O)c4cc5n(c4)CCC5)nn23)[C@@H](F)C1` [Compound 260, N-[3-(7-{[(3S,4R)-3-fluoro-1-methylpiperidin-4-yl]amino}-3-(2,2,2-trifluoroethyl)pyrazolo[1,5-a]pyridin-2-yl)prop-2-yn-1-yl]-2,3-dihydro-1H-pyrrolizine-6-carboxamide], for which the SC150 at p53-Y220C mutant protein is given as 18 nM. Moreover, the IC50 with NUGC-3 cells (setting [2]) was 1190 nM.

With `CN1CC[C@@H](Nc2cccc3c(CC(F)(F)F)c(C#CCNC(=O)c4ccn(C)c4)nn23)[C@@H](F)C1` [Compound 270, N-[3-(7-{[(3S,4R)-3-fluoro-1-methylpiperidin-4-yl]amino}-3-(2,2,2-trifluoroethyl)pyrazolo[1,5-a]pyridin-2-yl)prop-2-yn-1-yl]-1-methyl-1H-pyrrole-3-carboxamide], the SC150 at p53-Y220C mutant protein was 13 nM. Also, in the experiment with NUGC-3 cells (setting [2]), the IC50 was found to be 818 nM.

For the compound `CN1CC[C@@H](Nc2cccc3c(CC(F)(F)F)c(C#CCNC(=O)c4cc(C#N)n(C)c4)nn23)[C@@H](F)C1` [Compound 271, 5-cyano-N-[3-(7-{[(3S,4R)-3-fluoro-1-methylpiperidin-4-yl]amino}-3-(2,2,2-trifluoroethyl)pyrazolo[1,5-a]pyridin-2-yl)prop-2-yn-1-yl]-1-methyl-1H-pyrrole-3-carboxamide], on p53-Y220C mutant protein, the SC150 is listed as 23 nM. For the same compound, the half-maximal inhibitory concentration (IC50) in the experiment with NUGC-3 cells (setting [2]) was found to be 936 nM.

`Cc1cc(C(=O)NCC#Cc2nn3c(N[C@@H]4CCN(C)C[C@@H]4F)cccc3c2CC(F)(F)F)c[nH]1` [Compound 272, N-[3-(7-{[(3S,4R)-3-fluoro-1-methylpiperidin-4-yl]amino}-3-(2,2,2-trifluoroethyl)pyrazolo[1,5-a]pyridin-2-yl)prop-2-yn-1-yl]-5-methyl-1H-pyrrole-3-carboxamide]: the SC150 on p53-Y220C mutant protein is 13 nM. Besides, in the experiment with NUGC-3 cells (setting [2]), the 50% inhibitory concentration (IC50) was determined as 1230 nM.

With `CN1CC[C@@H](Nc2cccc3c(CC(F)(F)F)c(C#CCNC(=O)c4ccn(C5CC5)c4)nn23)[C@@H](F)C1` [Compound 280, 1-cycloproyl-N-[3-(7-{[(3S,4R)-3-fluoro-1-methylpiperidin-4-yl]amino}-3-(2,2,2-ethyl trifluoroacetate)pyrazolo[1,5-a]pyridin-2-yl)-prop-2-yn-1-yl]-1H-pyrrole-3-carboxamide], the SC150 at p53-Y220C mutant protein worked out at 16 nM. This compound gave an IC50 with NUGC-3 cells (Homo sapiens, NUGC-3, 168 h) of 1060 nM.

Turning to `CN1CC[C@@H](Nc2cccc3c(CC(F)(F)F)c(C#CCNC(=O)c4cnn(CC5CCC5)c4N)nn23)[C@@H](F)C1` [Compound 284, 5-amino-1-(cyclobutylmethyl)-N-[3-(7-{[(3S,4R)-3-fluoro-1-methylpiperidin-4-yl]amino}-3-(2,2,2-trifluoroethyl)pyrazolo[1,5-a]pyridin-2-yl)prop-2-yn-1-yl]-1H-pyrazole-4-carboxamide], the SC150 at p53-Y220C mutant protein turned out to be 12 nM. In addition, the IC50 in the experiment with NUGC-3 cells (setting [2]) worked out at 360 nM.

`CN1CC[C@@H](Nc2cccc3c(CC(F)(F)F)c(C#CCNC(=O)c4cnn(C(C)(C)C5CC5)c4N)nn23)[C@@H](F)C1` [Compound 290, 5-amino-1-(2-cyclopropylprop-2-yl)-N-[3-(7-{[(3S,4R)-3-fluoro-1-methylpiperidin-4-yl]amino}-3-(2,2,2-trifluoroethyl)pyrazolo[1,5-a]pyridin-2-yl)prop-2-yn-1-yl]-1H-pyrazole-4-carboxamide] showed an SC150 on p53-Y220C mutant protein of 11 nM. The 50% inhibitory concentration (IC50) with NUGC-3 cells (setting [2]) was 355 nM.

For `CCN1CC[C@@H](Nc2cccc3c(CC(F)(F)F)c(C#CCNC(=O)c4cnn(CC)c4N)nn23)[C@@H](F)C1` [Compound 364, 5-amino-1-ethyl-N-(3-(7-{[(3S,4R)-1-ethyl-3-fluoropiperidin-4-yl]amino}-3-(2,2,2-trifluoroethyl)pyrazolo[1,5-a]pyridin-2-yl)prop-2-yn-1-yl)-1H-pyrazole-4-carboxamide], the IC50 with NUGC-3 cells (setting [2]) amounted to 154 nM.
